Reference: ChEMBL document CHEMBL1157318, “Caryophyllene sesquiterpenoids from a fungicolous isolate of Pestalotiopsis disseminata” (2006)
Active and inactive are the calls of the source. The calls are words filed in the database; no cut-off is given here.

Tests used:
[1] = tested on: Fusarium verticillioides; experiment: Antimicrobial activity against Fusarium verticillioides NRRL 25457 at 200 ug/disk by agar disk diffusion method; format: functional, organism-based
[2] = tested on: Aspergillus flavus; experiment: Antimicrobial activity against sAspergillus flavus NRRL 6541 at 200 ug/disk by agar disk diffusion method; format: functional, organism-based
[3] = tested on: Staphylococcus aureus; experiment: Antimicrobial activity against Staphylococcus aureus ATCC 29213 at 100 ug/disk by agar disk diffusion method; format: functional; details: for zone of inhibition at 100 µg/disc: read-out: IZ
[4] = tested on: Candida albicans; experiment: Antimicrobial activity against Candida albicans ATCC 14053 at 100 ug/disk by agar disk diffusion method; format: functional, organism-based
[5] = tested on: Escherichia coli; experiment: Antimicrobial activity against sEscherichia coli ATCC 25922 at 100 ug/disk by agar disk diffusion method; format: functional, organism-based
[6] = tested on: Bacillus subtilis; experiment: Antimicrobial activity against Bacillus subtilis ATCC 6051 at 100 ug/disk by agar disk diffusion method; format: functional; details: for zone of inhibition at 100 µg/disc: read-out: IZ

Row | Compound | Activity [1] | Activity [2] | Activity [3] | Activity [4] | Activity [5] | Activity [6] | zone of inhibition at 100 µg/disc [3] | zone of inhibition at 100 µg/disc [6]
1 | CC1(C)C[C@H]2[C@@]1(O)[C@@H](O)C[C@]1(C)[C@H](O)C=C[C@]21CO | inactive | inactive | inactive | inactive | inactive | inactive |  | 
2 | CC1(C)C[C@H]2[C@@]1(O)[C@@H](O)C[C@]1(C)C=C[C@@H](O)[C@]21CO | inactive | inactive |  | inactive | inactive |  | 8 mm | 12 mm
3 | CC1(C)C[C@@H]2/C(CO)=C\C=C/[C@@](C)(O)C[C@H](O)[C@]21O [6-HYDROXYPUNCTAPORONIN B] | inactive | inactive |  | inactive | inactive |  | 8 mm | 12 mm
